According to patent US10695314B2, “Antimicrobial composition containing 7,10-epoxyoctadeca-7,9-dienoic acid as active ingredient” (priority 2016, dated 2020):
≈ marks a conversion by molar mass, not a printed value. Read-outs that look alike come from different tables or passages of the source. Values belong to the compound of their own block, whether it stands above or below them. Where a SMILES comes first, the peptide text is derived from it. Bridges are numbered along the chain shown (N, C = ends). [ ]: non-standard residue; d: D form. The star is where a group is joined. Ileψ(thiazoline)Cys = CC[C@H](C)[C@H](N)C1=N[C@H](C(=O)*)CS1; dOrn = NCCC[C@@H](N)C(=O)O

Columns and labels:
MDRSA 01ST001 [1] = assay: Minimal inhibitory concentration (MIC), broth microdilution per CLSI; conditions: Staphylococcus aureus
[2] = test system: Staphylococcus aureus ATCC 29213; assay: as above; type: cell-based; conditions: Staphylococcus aureus, ATCC29213; strain 29213 (ATCC 29213); antibiotic alone; read-out: MIC
Experimental: The minimum inhibitory concentration (MIC) of antibiotics and the activity of 7,10-EODA of the present invention against Staphylococcus aureus strains were measured according to the CLSI guideline (CLSI document M100-517, 2007). Specifically, each antibiotic or 7,10-EODA was diluted 2-fold (200-0.97 μg/mL) by adding MHB (Mueller-Hinton Broth) to a 96-well microtiter plate. In the mid-exponential phase (0.5 OD600), the culture was diluted 10-fold with MHB and 0.1 mL aliquots of the diluent were added to wells containing the serially diluted test reagent and cultured at 37° C. for 12 hours. About the end of the culture period, the cell density was measured at an optical density of 600 nm (OD600) using a […].
(§1) Specifically, the minimal inhibitory concentration (MIC) was measured according to the method of Experimental Example 4 above, and the degree of inhibition (Agar diffusion analysis) (zone of inhibition; ZOI) was measured according to the method of Experimental Example 5 above.

[3] = test system: Staphylococcus aureus ATCC 29213; assay: Agar disk diffusion analysis, zone of inhibition (ZOI); type: cell-based; conditions: strain 29213
Experimental: (§2) For synergy effect screening, a 0.1 mL aliquot of MRSA or MSSA strain (5×10^5 CFU/mL) cultured in a log-phase on TSA plates was inoculated. […] A disk including DMSO alone or 7,10-EODA alone (¼×MIC) was used as a control group. The plates were cultured under conditions of […] and 24 hours, and a synergistic effect was observed when the disk periphery including both antibiotic and 7,10-EODA was at least 5 mm in zone of inhibition (ZOI).
as §1

MDRSA 01ST001 [4] = assay: as above; type: cell-based, Staphylococcus aureus; conditions: for antimicrobial activity, disk diffusion: 100 μg each, FIG. 4
Experimental: as §2
Specifically, in order to compare the antimicrobial activity of the 7,10-EODA or the antibiotic of the present invention against the MDRSA 01ST001 strain, the MDRSA 01ST001 strain was treated with the 7,10-EODA (E 100 μg) of the present invention, streptomycin (S, 100 μg), ampicillin (A, 100 μg), oxacillin (O, 100 μg), vancomycin (V, 100 μg), or penicillin (P, 100 μg), according to the method described in Experimental Example 5.
as §1

[5] = test system: MRSA 01ST001 (MDRSA 01ST001); assay: Antimicrobial activity on solid medium (clear zone around filter paper); type: cell-based, Staphylococcus aureus; conditions: for clear zone on agar plate: 100 μg per filter paper, 37° C., 2 to 3 days, FIG. 1
Experimental: (§3) First, 1.5% of potato agar was added to the YDP medium, sterilized, and then an agar plate hardened by pouring about 20 ml in a plastic Petri dish was used. MRSA 01ST001 was diluted to about 107/ml, and then about 500 μl was dispersed evenly on the agar plate.
(§4) The size of the clear zone around the filter paper shown after the culture at 37° C. for 2 to 3 days after the inoculation was measured to confirm the degree of antimicrobial activity. At this time, vancomycin 100 μg, oxacillin 100 μg, ampicillin 100 μg, streptomycin 100 μg, and penicillin 100 μg were used as control groups.
(§5) The antimicrobial activity can be confirmed with the degree showing the clear zone on the agar plate. It is judged that the larger the clear zone, the higher the antimicrobial activity. The results are illustrated in FIG. 1 and FIG. 2.
(§6) The results are illustrated in FIG. 3. The experiment was carried out in the same manner as in Example 1-2.

MRSA strain 136 = assay: Checker board synergy evaluation (MIC, FICI); type: cell-based; conditions: Staphylococcus aureus, 24 h
Experimental: (§7) Interactions of the selected antibiotic or 7,10-EODA of the present invention were evaluated using the checker board method (Nair et al. 2015). […] To obtain various concentrations of 7,10-EODA and antibiotic combination, a 2-fold dilution of the beta-lactam antibiotic was placed on the same plate. About 10^5 CFU/mL of microorganisms to be tested was added to the wells of each plate, and cultured for 24 hours at 37° C. without shaking. At the end of the culture period, cell growth was measured at OD600 using a spectrophotometer. Each 7,10-EODA and antibiotic combination was repeated at least three times. MIC was identified at the lowest concentration of antibiotics with growth inhibition of 90% or higher. FICAB means fractional inhibitory concentration (FIC) of drug A in the presence of drug B, and FICBA means fractional inhibitory concentration (FIC) of drug B in the presence of drug A. The fractional inhibitory concentration index (FICI) represents the sum of the FIC values of the interacting antibiotics. Interactions are based on FICI values, with FICIs less than 0.5 being categorized as synergy, FICIs 0.5 to 4 being indifferent, and FICIs greater than 4 being antagonistic. The degree of synergy was also measured based on the conventional Bliss independence model of synergy (Morones-Ramirez et al. 2013). Specifically, the degree of synergy was calculated by the following equation: S indicates degree of synergy, fAB indicates bacterial growth (optical density) when 7,10-EODA and antibiotics are used in combination, fA0 and f0B represent bacterial growth for antibiotic alone or 7,10-EODA single treatment, respectively. f00 represents bacterial growth in the absence of drug. The degree of synergy is divided into three categories based on the S value, where 0 means neutral, greater than 0 means synergism, and less than 0 means antagonism. S=(fA0/f00)(f0B/f00)−(fAB/f00)
(§8) The antimicrobial activity synergistic effects according to the combination treatment of 7,10-EODA and each antibiotic on methicillin-resistant Staphylococcus aureus (MRSA) strains 085, 093, 120, 136, and 165, MDRSA 01ST001, which is a multidrug-resistant Staphylococcus aureus (MDRSA) strain, E. coli ATCC 8739, and S. typhimurium KCTC 2515 were confirmed. […] Fractional inhibitory concentration indices (FICI) values accordingly were confirmed.

MRSA strain 093 = assay: Checker board synergy evaluation (MIC, FICI); type: cell-based; conditions: Staphylococcus aureus, 24 h
Experimental: as §7, §8

MRSA strain 165 = assay: Checker board synergy evaluation (MIC, FICI); type: cell-based; conditions: Staphylococcus aureus, 24 h
Experimental: as §7, §8

MDRSA 01ST001 [6] = assay: Checker board synergy evaluation (MIC, FICI); type: cell-based; conditions: Staphylococcus aureus, 24 h; strain 001; single agent
Experimental: as §7, §8

MRSA strain 120 = assay: Checker board synergy evaluation (MIC, FICI); type: cell-based; conditions: Staphylococcus aureus, 24 h
Experimental: as §7, §8

E. coli ATCC 8739 = assay: Checker board synergy evaluation (MIC, FICI); type: cell-based; conditions: Escherichia coli, ATCC8739, 24 h; strain 8739; single agent
Experimental: as §7, §8

MRSA strain 085 = assay: Checker board synergy evaluation (MIC, FICI); type: cell-based; conditions: Staphylococcus aureus, 24 h
Experimental: as §7, §8

S. typhimurium KCTC 2515 = assay: Checker board synergy evaluation (MIC, FICI); type: cell-based, Salmonella typhimurium; conditions: Salmonella enterica, 24 h; strain 2515; single agent
Experimental: as §7, with “S=(fA0/f00)(f0B/f00)−(fAB/f00) […]” for “S=(fA0/f00)(f0B/f00)−(fAB/f00)”

[7] = test system: Staphylococcus aureus ATCC 29213; assay: Antimicrobial activity on solid medium (clear zone around filter paper); type: cell-based; conditions: FIG. 3
Experimental: as §3, §4, §5, §6

MDRSA 01ST001 [8] = conditions: 125 μg/ml
HepG2 animal cells = test system: HepG2 animal cells
Experimental: Simple toxicity tests were performed for the four components of 7,10-EODA, DOD, oleic acid, and DMSO. The target cells were HepG2 animal cells and the results were obtained by MTT assay.

MDRSA 01ST001 [9] = assay: microbe, parasite or virus in culture; type: cell-based; conditions: Staphylococcus aureus, 12 h
Source text: The results are illustrated in FIG. 11.

MDRSA 01ST001 [10] = assay: microbe, parasite or virus in culture; conditions: Staphylococcus aureus
MDRSA 01ST001 [11] = assay: Degree of synergy (Bliss independence model); type: cell-based, Staphylococcus aureus; conditions: antibiotic ¼×MIC in combination with 7,10-EODA 15.6 μg/mL (⅛×MIC), 24 hours
Experimental: as §7
The results are illustrated in FIG. 10. […]

MIC (MDRSA 01ST001 [1]): 1000 µg/mL (≈ 2860 µM) | MIC [2]: 1.97 µg/mL (≈ 5.64 µM) | MIC (MRSA strain 136; strain 136, single agent, read-out: MIC): 1000 µg/mL | MIC (MRSA strain 093; strain 093, single agent, read-out: MIC): 31.2 µg/mL | MIC (MRSA strain 165; strain 165, single agent, read-out: MIC): 2000 µg/mL | MIC (MDRSA 01ST001 [6]): 1000 µg/mL | MIC (MRSA strain 120; strain 120, single agent, read-out: MIC): 250 µg/mL | MIC (E. coli ATCC 8739): 0.6 µg/mL | MIC (MRSA strain 085; strain 085, single agent, read-out: MIC): 1000 µg/mL | MIC (S. typhimurium KCTC 2515): 0.6 µg/mL
SMILES: CC1(C)S[C@@H]2[C@H](NC(=O)[C@H](N)c3ccccc3)C(=O)N2[C@H]1C(=O)O [AMP, ampicillin]
ZOI without 7.10-EODA ([3]; antibiotic ½×MIC alone): 16.9 ± 0.3 mm | ZOI with 7.10-EODA ([3]; antibiotic ½×MIC with 7,10-EODA ¼×MIC): 17.0 mm | antimicrobial activity, disk diffusion (MDRSA 01ST001 [4]): resistant | antimicrobial activity effect in combination with 7,10-EODA (MDRSA 01ST001 [4]; antibiotic treated in combination with 7,10-EODA, Table 1 summary): strong antimicrobial activity effect | ZOI without 7.10-EODA (MDRSA 01ST001 [4]; strain 001, antibiotic ½×MIC alone): 7.3 ± 0.2 mm | ZOI with 7.10-EODA (MDRSA 01ST001 [4]; strain 001, antibiotic ½×MIC with 7,10-EODA ¼×MIC): 14.2 mm | clear zone on agar plate [5]: no clear zone appeared

SMILES: CCCCCCCCc1ccc(CCCCCC(=O)O)o1 [7,10-EODA, 7,10-epoxyoctadeca-7,9-dienoic acid]
antimicrobial activity on solid medium [7]: antimicrobial activity was exhibited | antimicrobial activity, disk diffusion (MDRSA 01ST001 [4]): showed the antimicrobial activity | antimicrobial activity according to concentration (MDRSA 01ST001 [4]; 50, 100, 200 and 400 μg, FIG. 5): high in a concentration-dependent manner | time until MDRSA 01ST001 was completely killed (MDRSA 01ST001 [8]): ≤ 10 min | clear zone on agar plate [5]: clear zone similar in size to vancoclin | clear zone size with treatment concentration ([5]; 50, 100, 200 and 400 μg, FIG. 2): improved in a concentration-dependent manner | antimicrobial activity on solid medium ([5]; MDRSA 01ST001, FIG. 3): higher antimicrobial activity than Staphylococcus aureus ATCC 29213 | toxicity as a whole (HepG2 animal cells): not highly toxic | MIC90 (MDRSA 01ST001 [9]; read-out: MIC90 concentration): ≤ 15.6 µg/mL | inhibition at 15.6 µg/mL (MDRSA 01ST001 [9]; read-out: reduction of residual viable microorganisms compared to the control): > 90% | MIC (MRSA strain 136): 125 µg/mL | MIC (MRSA strain 093): 125 µg/mL | MIC (MRSA strain 165): 125 µg/mL | MIC (MDRSA 01ST001 [6]): 125 µg/mL | MIC (MRSA strain 120): 125 µg/mL | MIC (E. coli ATCC 8739): 500 µg/mL | MIC (MRSA strain 085): 125 µg/mL | viability at 62.5 µg/mL (MDRSA 01ST001 [10]; 10 min, read-out: residual viable microorganism concentration compared to the control): < 10% | inhibition at 15.6 µg/mL (MDRSA 01ST001 [10]; 4 h, read-out: decrease of residual viable microorganism concentration compared to the control): ≥ 50% | MIC (S. typhimurium KCTC 2515): 500 µg/mL

SMILES: CC[C@H](C)[C@H](N)C1=N[C@H](C(=O)N[C@@H](CC(C)C)C(=O)N[C@H](CCC(=O)O)C(=O)N[C@H](C(=O)N[C@H]2CCCCNC(=O)[C@H](CC(N)=O)NC(=O)[C@@H](CC(=O)O)NC(=O)[C@H](Cc3cnc[nH]3)NC(=O)[C@@H](Cc3ccccc3)NC(=O)[C@H]([C@@H](C)CC)NC(=O)[C@@H](CCCN)NC2=O)[C@@H](C)CC)CS1 [bacitracin] ({Ileψ(thiazoline)Cys}-L[dE]IK[dOrn]I[dF]H[dD]N; lactam 4-C)
synergy index (MDRSA 01ST001 [11]): 0.8
